In one data set the target is T1, THR-α (Homo sapiens, UniProt P10827).
T1 construct: A mixed solution of 4× TRα-LBD or TRβ-LBD and 4× RXRα was prepared
The experiment in a line: Agonistic activity on THR-α (TRα-LBD/RXRα, biotin-SRC2-2 recruitment, fluorescence ratio 665 nm/615 nm). Conditions: for Agonistic activity for THR-α compared to control compound MGL-3196: in words, versus MGL-3196. It counts as biochemical. As to the method: (§1) 100× solutions of reference compounds or compounds were prepared with DMSO and then diluted in a 1:3 equal ratio. The gradient dilution of 100× reference compound or compound was further diluted to 4× with 1× reaction buffer and then added to the test plate. A mixed solution of 4× TRα-LBD or TRβ-LBD and 4× RXRα was prepared with 1× reaction buffer and added to the test plate. […] The plate was centrifuged at 1000 rpm for 1 min and then incubated at room temperature and in the dark for 4 h.

In the next data set the target is T2, THR-β (Homo sapiens, UniProt P10828).
T2 construct: A mixed solution of 4× TRα-LBD or TRβ-LBD and 4× RXRα was prepared
As to the kind of experiment: Agonistic activity on THR-β (TRβ-LBD/RXRα, biotin-SRC2-2 recruitment, fluorescence ratio 665 nm/615 nm). Conditions: for Selectivity THR-β/THR-α: THR-α EC50 ÷ THR-β EC50; for Agonistic activity for THR-β compared to control compound MGL-3196: in words, versus MGL-3196. It is filed as biochemical. As to the method:
as §1

Data set [1] in a line: Pharmacokinetic test in ICR mice, plasma concentration by LC/MS/MS. It is filed as in vivo. Conditions: for AUC(0-inf): read-out: Exposure AUCinf. As to the method:
• Polyethylene glycol 400 (PEG400), manufacturer: Chengdu Kelong Chemical Reagent Factory; • Hydroxypropyl 3-cyclodextrin (HP-β-CD), manufacturer: Shanghai Dibai Chemical Technology Co., Ltd.; • HPC LF, manufacturer: Chengdu Yuannuo Tiancheng Technology Co., Ltd.; • Heparin sodium, manufacturer: Chengdu Kelong Chemical Reagent Factory. • Experimental animals: ICR mice (Chengdu Dossy Experimental Animals CO., LTD.) 2) Experimental Method
Preparation of Test Compound Solution
IV group: 1.15 mg of test compound was accurately weighed, and then DMA (0.228 ml) was added to dissolve the compound, to which were successively added PEG400 (1.139 ml) and 0.1 M of phosphate buffer (5.012 ml). Finally, 40% HP-B-CD was added to the final volume of 11.39 ml. The solution was thoroughly mixed by ultrasonic vortex. A clear solution at the concentration of 0.1 mg/ml was prepared.
PO group: 5.06 mg of test compound was precisely weighed, and then 2% HPC LF (containing 0.1% Tween-80) was added to the final volume of 20.04 ml. The solution was mixed by ultrasound, to prepare a uniform suspension at the concentration of 0.25 mg/ml.
After fasting overnight (free drinking water), nine adult ICR mice (3 mice for each time point) were administered by injection via tail vein and by gavage, respectively. For IV group, 5 min, 15 min, 0.5 h, 1 h, 2 h, 4 h, 8 h, 12 h and 24 h after administration, 0.1 ml of blood was collected from the submandibular vein, centrifuged at 4° C. for 5 min to separate the plasma, and stored at −20° C. for detection. For PO group, before administration and 0.5 h, 1 h, 2 h, 4 h, 6 h, 8 h, 12 h and 24 h after administration, 0.1 ml of blood was collected from the submandibular vein, and the processing was the same as that of IV group.
Then, the concentration of original drug in plasma was determined by LC/MS/MS. The plasma concentration-time curve was plotted, and the main pharmacokinetic parameters were calculated with WinNonlin 6.3 software (see Table 2).

Like-named read-outs stand apart in the source and are kept apart here.

T2 sequence (P10828 217-461 limits assumed, other chains not shown): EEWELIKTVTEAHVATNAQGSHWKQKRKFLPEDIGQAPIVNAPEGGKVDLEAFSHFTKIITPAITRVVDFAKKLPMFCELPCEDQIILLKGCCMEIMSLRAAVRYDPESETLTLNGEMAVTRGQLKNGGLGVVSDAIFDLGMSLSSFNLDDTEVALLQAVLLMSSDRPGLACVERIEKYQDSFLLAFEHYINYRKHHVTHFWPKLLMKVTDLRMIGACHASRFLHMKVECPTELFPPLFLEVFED
T2 sequence (P19793 whole entry partner, other chains not shown, the tested form may be a part): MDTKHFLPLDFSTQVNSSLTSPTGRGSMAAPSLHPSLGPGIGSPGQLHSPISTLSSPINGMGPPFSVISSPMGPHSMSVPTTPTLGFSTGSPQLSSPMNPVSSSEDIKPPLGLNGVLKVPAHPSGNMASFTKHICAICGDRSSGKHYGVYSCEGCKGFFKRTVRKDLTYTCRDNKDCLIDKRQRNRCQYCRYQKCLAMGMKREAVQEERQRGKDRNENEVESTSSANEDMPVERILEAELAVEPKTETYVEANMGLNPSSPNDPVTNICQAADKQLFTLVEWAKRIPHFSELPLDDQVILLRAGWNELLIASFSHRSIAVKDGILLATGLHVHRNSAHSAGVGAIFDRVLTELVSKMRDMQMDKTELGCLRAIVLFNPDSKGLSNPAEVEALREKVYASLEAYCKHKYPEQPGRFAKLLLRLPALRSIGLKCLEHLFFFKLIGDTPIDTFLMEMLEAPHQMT
T1 sequence (P10827 163-410 isoform P10827-2 limits assumed, other chains not shown): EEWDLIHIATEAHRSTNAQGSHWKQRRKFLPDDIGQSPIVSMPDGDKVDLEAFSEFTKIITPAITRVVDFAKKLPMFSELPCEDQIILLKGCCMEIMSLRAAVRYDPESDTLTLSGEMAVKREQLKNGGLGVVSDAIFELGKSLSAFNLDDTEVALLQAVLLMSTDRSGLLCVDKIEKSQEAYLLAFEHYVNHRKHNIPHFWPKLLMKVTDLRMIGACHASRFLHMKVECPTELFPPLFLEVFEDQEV
T1 sequence (P19793 whole entry partner, other chains not shown, the tested form may be a part): as the sequence (P19793 whole entry partner, other chains not shown, the tested form may be a part) above

In the case of `[2H]C([2H])([2H])C(c1cc(Oc2c(Cl)cc(-n3nc(C#N)c(=O)[nH]c3=O)cc2Br)n[nH]c1=O)C([2H])([2H])[2H]` [Compound 2, 2-(3-bromo-5-chloro-4-((5-di(trideuteromethyl)methyl-6-oxo-1,6-dihydropyridazine-3-yl)oxy)phenyl)-3,5-dioxo-2,3,4,5-tetrahydro-1,2,4-triazine-6-nitrile], the 50% effective concentration (EC50) (as a rule, the concentration needed to bring the measured effect to its halfway point) on THR-α is 1.06 µM; at THR-β it was 0.052 µM. The AUC(0-inf) in data set [1] (ICR, mouse, plasma, dosage 2 mg/kg, route not given) was 9260 ng·h/mL. Also, the half-life in data set [1] (ICR, mouse, plasma, dosage 2 mg/kg, route not given, read-out: Half-life T1/2 (converted)) was 5.25 h. For the same compound, the Cmax in data set [1] (ICR, mouse, plasma, dosage 2 mg/kg, route not given, read-out: Peak concentration Cmax) came out at 960 ng/mL. Moreover, the Tmax (as a rule, the time from dosing to the highest level) in data set [1] (ICR, mouse, plasma, dosage 2 mg/kg, route not given, read-out: Peak time Tmax) is 4 h. In data set [1] (compound at a lower dose, in words), the “Half-life compared to MGL-3196” value was “longer”.

As for `[2H]C([2H])([2H])C(c1cc(Oc2c(Br)cc(-n3nc(C#N)c(=O)[nH]c3=O)cc2Br)n[nH]c1=O)C([2H])([2H])[2H]` [Compound 14], at THR-α, the EC50 is 0.326 µM and the “Agonistic activity for THR-α compared to control compound MGL-3196” value is reported as “significantly higher agonistic activities”. At THR-β, the EC50 came to 0.027 µM, the “Selectivity THR-β/THR-α” value worked out at 12 and the “Agonistic activity for THR-β compared to control compound MGL-3196” value was “significantly higher agonistic activities”.

Take `CC(C)c1cc(Oc2c(Cl)cc(-n3nc(C#N)c(=O)[nH]c3=O)cc2Br)n[nH]c1=O` [Compound 1, 2-(3-bronco-5-chloro-4-((5-isopropyl-6-oxo-1,6-dihydropyridazin-3-yl)oxy)phenyl)-3,5-dioxo-2,3,4,5-tetrahydro-1,2,4-triazine-6-nitrile]: on THR-α, the EC50 came out at 1.02 µM and the “Agonistic activity for THR-α compared to control compound MGL-3196” value was “significantly higher agonistic activities”. Also, on THR-β, the concentration giving a half-maximal response (EC50) was determined as 0.057 µM and the “Agonistic activity for THR-β compared to control compound MGL-3196” value was “significantly higher agonistic activities”.

Consider `[2H]c1c(Oc2c(Cl)cc(-n3nc(C#N)c(=O)[nH]c3=O)cc2Br)n[nH]c(=O)c1C(C([2H])([2H])[2H])C([2H])([2H])[2H]` [Compound 3, 2-(3-bromo-5-chloro-4-((4-deutero-5-(1,1,1,3,3,3-hexadeuteropropyl-2-yl)-6-oxo-1,6-dihydropyrazin-3-yl)oxy)phenyl)-3,5-dioxy-2,3,4,5-tetrahydro-1,2,4-triazine-6-nitrile], for which the EC50 on THR-α turned out to be 1.33 µM. Further, on THR-β, the EC50 was 0.06 µM and the “Agonistic activity for THR-β compared to control compound MGL-3196” value was “significantly higher agonistic activities”.

As for `[2H]c1c(Oc2c(Br)cc(-n3nc(C#N)c(=O)[nH]c3=O)cc2Br)n[nH]c(=O)c1C(C([2H])([2H])[2H])C([2H])([2H])[2H]` [Compound 15, 2-(3,5-dibromo-4-((6-oxo-5-(propan-2-yl-1,1,1,3,3,3-d6)-1,6-dihydropyridazin-3-yl-4-d)oxy)phenyl)-3,5-dioxy-2,3,4,5-tetrahydro-1,2,4-triazine-6-nitrile], at THR-α, the 50% effective concentration (EC50) amounted to 0.349 µM and the “Agonistic activity for THR-α compared to control compound MGL-3196” value is recorded as “significantly higher agonistic activities”. At THR-β, the concentration giving a half-maximal response (EC50) worked out at 0.019 µM, the “Selectivity THR-β/THR-α” value turned out to be 18 and the “Agonistic activity for THR-β compared to control compound MGL-3196” value is listed as “significantly higher agonistic activities”.

`CC(C)c1cc(Oc2c(Br)cc(-n3nc(C#N)c(=O)[nH]c3=O)cc2Br)n[nH]c1=O` [Compound 13, 2-(3,5-Dibromo-4-((5-isopropyl-6-oxo-1,6-dihydropyridazin-3-yl)oxy)phenyl)-3,5-dioxy-2,3,4,5-tetrahydro-1,2,4-triazine-6-nitrile]: on THR-α, the EC50 was 0.8 µM and the “Agonistic activity for THR-α compared to control compound MGL-3196” value is “significantly higher agonistic activities”. Also, on THR-β, the EC50 was found to be 0.03 µM, the “Selectivity THR-β/THR-α” value was found to be 27 and the “Agonistic activity for THR-β compared to control compound MGL-3196” value is reported as “significantly higher agonistic activities”.

Turning to `CC(C)c1cc(Oc2c(Cl)cc(-n3nc(C#N)c(=O)[nH]c3=O)cc2Cl)n[nH]c1=O` [MGL-3196, reference compound], in data set [1] (ICR, mouse, plasma, dosage 5 mg/kg, route not given), the AUC(0-inf) stood at 9360 ng·h/mL. In data set [1] (dosage 5 mg/kg, route not given), the “Peak time Tmax” value turned out to be 2 h.

The values above are taken from patent publication US11926618B2, “Halogen-substituted phenylate compound and applications thereof” (HINOVA PHARMACEUTICALS INC., priority 2019, dated 2024).
